From ChEMBL document CHEMBL1133391, “Synthesis and antibacterial activity of 2alpha-functionalized 1beta-methylcarbapenems related to KR-21012” (Bioorg Med Chem Lett, 2000)
In brackets after ≈: the same amount, converted by molar mass.

Key:
[1] = tested on: Enterobacter cloacae; experiment: Compound was evaluated for in vitro antibacterial activity against Enterobacter cloacae P99 strain by agar dilution method; type: functional
[2] = tested on: Escherichia coli; experiment: Compound was evaluated for in vitro antibacterial activity against Escherichia coli 078 strain by agar dilution method; type: functional
[3] = tested on: Escherichia coli; experiment: Compound was evaluated for in vitro antibacterial activity against Escherichia coli 1507 E strain by agar dilution method; type: functional
[4] = tested on: Klebsiella oxytoca; experiment: Compound was evaluated for in vitro antibacterial activity against Klebsiella oxytoca 1082 E strain by agar dilution method; type: functional
[5] = tested on: Klebsiella aerogenes; experiment: Compound was evaluated for in vitro antibacterial activity against Klebsiella aerogenes 1522 E strain by agar dilution method; type: functional
[6] = tested on: Pseudomonas aeruginosa; experiment: Compound was evaluated for in vitro antibacterial activity against Pseudomonas aeruginosa 1771 strain by agar dilution method; type: functional
[7] = tested on: Salmonella typhimurium; experiment: Compound was evaluated for in vitro antibacterial activity against Salmonella Typhimurium by agar dilution method; type: functional, Salmonella enterica subsp. enterica serovar Typhimurium; settings: Salmonella enterica
[8] = tested on: Streptococcus pyogenes; experiment: Compound was evaluated for in vitro antibacterial activity against Streptococcus pyogenes 77A strain by agar dilution method; type: functional
[9] = tested on: Staphylococcus aureus; experiment: Compound was evaluated for in vitro antibacterial activity against Staphylococcus aureus SG511 strain by agar dilution method; type: functional
[10] = tested on: Enterococcus faecium; experiment: Compound was evaluated for in vitro antibacterial activity against Streptococcus faecium MD strain by agar dilution method; type: functional
[11] = tested on: Pseudomonas aeruginosa; experiment: Compound was evaluated for in vitro antibacterial activity against Pseudomonas aeruginosa 1771 M strain by agar dilution method; type: functional
[12] = tested on: Staphylococcus aureus; experiment: Compound was evaluated for in vitro antibacterial activity against Staphylococcus aureus 285 strain by agar dilution method; type: functional
[13] = Tmax at a single subcutaneous administration of 40 mg/kg in mice; type: ADME, organism-based; set-up: dose 40 mg/kg, route subcutaneous; settings: mouse, in vivo, sc
[14] = Urinary recovery by disk method using Streptococcus pyogenes (0-24 h); type: ADME, organism-based; settings: mouse, urine; read-out: UR
[15] = Half-life at a single subcutaneous administration of 40 mg/kg in mice; type: ADME, organism-based; set-up: dose 40 mg/kg, route subcutaneous; settings: mouse, in vivo, sc
[16] = tested on: Mus musculus; experiment: Area under the curve was determined for the compound at a single subcutaneous administration of 40 mg/kg in mice; type: ADME, organism-based; set-up: dose 40 mg/kg, route subcutaneous; unit not given here; settings: in vivo, sc
[17] = Peak concentration at a single subcutaneous administration of 40 mg/kg in mice; type: ADME, organism-based; set-up: dose 40 mg/kg, route subcutaneous; settings: mouse, in vivo, sc
[18] = target: T1, Dipeptidase 1 (Sus scrofa) (UniProt P22412); experiment: Compound was evaluated for DHP-1 stability by using purified porcine renal enzyme which is represented as the relative rate of hydrolysis compared to imipenem (rate=100); type: functional
T1 sequence (whole entry): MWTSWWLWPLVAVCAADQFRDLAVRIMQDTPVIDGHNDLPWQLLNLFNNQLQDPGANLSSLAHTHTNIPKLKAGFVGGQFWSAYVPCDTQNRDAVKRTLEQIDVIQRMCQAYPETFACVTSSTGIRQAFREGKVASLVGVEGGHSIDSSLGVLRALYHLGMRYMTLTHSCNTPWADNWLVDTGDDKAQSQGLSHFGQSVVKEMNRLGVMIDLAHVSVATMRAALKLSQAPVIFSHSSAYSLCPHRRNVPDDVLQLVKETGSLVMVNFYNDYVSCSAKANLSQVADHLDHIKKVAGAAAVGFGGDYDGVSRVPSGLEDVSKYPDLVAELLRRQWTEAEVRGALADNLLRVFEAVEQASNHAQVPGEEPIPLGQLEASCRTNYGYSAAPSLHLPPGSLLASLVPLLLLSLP

[19] = tested on: Mus musculus; experiment: In vivo protective activity administered sc 1 hr after ip Enterobacter cloacae P strain infection in mice; type: functional; settings: read-out: PD50
[20] = tested on: Mus musculus; experiment: In vivo protective activity administered sc 1 hr after ip Escherichia coli 078 strain infection in mice; type: functional; settings: read-out: PD50
[21] = tested on: Mus musculus; experiment: In vivo protective activity administered sc 1 hr after ip Streptococcus pyogenes 77A strain infection in mice; type: functional; settings: read-out: PD50
[22] = target: T1, Dipeptidase 1 (Sus scrofa); experiment: Compound was evaluated for DHP-1 stability by using purified porcine renal enzyme; type: functional

SMILES | MIC [1] [µg/mL] | MIC [2] [µg/mL] | MIC [3] [µg/mL] | MIC [4] [µg/mL] | MIC [5] [µg/mL] | MIC [6] [µg/mL] | MIC [7] [µg/mL] | MIC [8] [µg/mL] | MIC [9] [µg/mL] | MIC [10] [µg/mL] | MIC [11] [µg/mL] | MIC [12] [µg/mL] | Tmax [13] [min] | half-life [15] [min] | Cmax [17] [ng/mL] | ED50 [20] [mg/kg] | ED50 [21] [mg/kg] | further results
C[C@H]1C([C@@H](O)C2CC2)=C(C(=O)[O-])N2C(=O)[C@H]([C@@H](C)O)C12.[Na+] (stereo not given in full) | 0.781 | 1.56 | 0.195 | 6.25 | 0.781 | 100 | 1.56 | 0.098 | 0.195 | 3.12 | 3.12 | 0.781 |  |  |  |  |  | 
CC[C@@H](O)C1=C(C(=O)[O-])N2C(=O)[C@H]([C@@H](C)O)C2[C@H]1C.[Na+] (stereo not given in full) | 0.781 | 0.098 | 0.098 | 3.12 | 0.391 | 100 | 0.391 | 0.625 | 0.098 | 3.12 | 1.56 | 0.098 |  |  |  |  |  | 
C[C@H]1C([C@H](O)C2CC2)=C(C(=O)[O-])N2C(=O)[C@H]([C@@H](C)O)C12.[Na+] (stereo not given in full) | 0.781 | 0.098 | 0.049 | 0.781 | 0.195 | 100 | 0.098 | 0.007 | 0.049 | 0.781 | 1.56 | 0.049 | 10.2 | 18.6 | 18100 | 23.1 | 7.94 | dose excreted [14]: 14.3%; AUC [16]: 6.86; Activity [18]: 38; ED50 [19]: 12.6 mg/kg
CO[C@H]1CCC[C@H]2C1=C(C(=O)[O-])N1C(=O)[C@H]([C@@H](C)O)[C@@H]21.[Na+] [SANFETRINEM SODIUM] | 3.12 | 0.049 | 0.195 | 1.56 | 0.391 | 25 | 0.195 | 0.007 | 0.098 | 1.56 | 0.391 | 0.049 | 22.2 | 33 | 28800 | 3.13 | 1.46 | dose excreted [14]: 20.5%; AUC [16]: 27.39; Activity [22]: 20; ED50 [19]: 1.18 mg/kg
C[C@@H](O)[C@H]1C(=O)N2C(C(=O)O)=C(S[C@@H]3CN[C@H](C(=O)N(C)C)C3)[C@H](C)[C@H]12 [MEROPENEM] | 0.025 (≈ 0.0652 µM) | 0.013 (≈ 0.0339 µM) | 0.025 (≈ 0.0652 µM) | 0.049 (≈ 0.128 µM) | 0.049 (≈ 0.128 µM) | 0.361 (≈ 0.941 µM) | 0.049 (≈ 0.128 µM) | 0.013 (≈ 0.0339 µM) | 0.013 (≈ 0.0339 µM) | 6.25 (≈ 16.3 µM) | 0.049 (≈ 0.128 µM) | 0.195 (≈ 0.509 µM) | 12.6 | 14.4 | 7600 | 1.24 | 4.6 | Activity [22]: 32
C[C@H]1C([C@H](O)C2CCCC2)=C(C(=O)[O-])N2C(=O)[C@H]([C@@H](C)O)C12.[Na+] (stereo not given in full) | 6.25 | 0.195 | 0.195 | 3.12 | 1.56 | 100 | 0.195 | 0.013 | 0.098 | 0.781 | 0.781 | 0.098 |  |  |  |  |  | 
CC(C)[C@@H](O)C1=C(C(=O)[O-])N2C(=O)[C@H]([C@@H](C)O)C2[C@H]1C.[Na+] (stereo not given in full) | 1.56 | 0.049 | 0.049 | 1.56 | 0.391 | 100 | 0.098 | 0.007 | 0.098 | 1.56 | 0.781 | 0.098 | 15 | 41.4 | 25000 | 1.3 | 1.19 | dose excreted [14]: 25.1%; AUC [16]: 20.9; Activity [22]: 21; ED50 [19]: 1.37 mg/kg

Continued, in another order:

MIC [1] [µg/mL] | MIC [2] [µg/mL] | MIC [3] [µg/mL] | MIC [4] [µg/mL] | MIC [5] [µg/mL] | MIC [6] [µg/mL] | MIC [7] [µg/mL] | MIC [8] [µg/mL] | MIC [9] [µg/mL] | MIC [10] [µg/mL] | MIC [11] [µg/mL] | MIC [12] [µg/mL] | SMILES | Tmax [13] [min] | half-life [15] [min] | Cmax [17] [ng/mL] | ED50 [20] [mg/kg] | ED50 [21] [mg/kg] | further results
6.25 | 0.781 | 0.781 | 12.5 | 6.25 | 100 | 1.56 | 0.049 | 0.391 | 12.5 | 6.25 | 0.391 | C[C@H]1C([C@H](O)C(C)(C)C)=C(C(=O)[O-])N2C(=O)[C@H]([C@@H](C)O)C12.[Na+] (stereo not given in full) |  |  |  |  |  | 
0.781 | 0.391 | 0.391 | 12.5 | 0.781 | 100 | 0.781 | 0.049 | 0.391 | 12.5 | 6.25 | 0.391 | CC[C@H](O)C1=C(C(=O)[O-])N2C(=O)[C@H]([C@@H](C)O)C2[C@H]1C.[Na+] (stereo not given in full) |  |  |  |  |  | 
12.5 | 1.56 | 0.391 | 25 | 12.5 | 100 | 0.781 | 0.025 | 0.781 | 12.5 | 1.56 | 0.781 | CC(C)[C@H](O)C1=C(C(=O)[O-])N2C(=O)[C@H]([C@@H](C)O)C2[C@H]1C.[Na+] (stereo not given in full) |  |  |  |  |  | 
3.12 | 0.195 | 0.195 | 3.12 | 3.12 | 100 | 0.195 | 0.013 | 0.098 | 1.56 | 1.56 | 0.098 | CCC(C)[C@@H](O)C1=C(C(=O)[O-])N2C(=O)[C@H]([C@@H](C)O)C2[C@H]1C.[Na+] (stereo not given in full) |  |  |  |  |  | 
